Laboratory results reported in patent US12599575B2, “Antimicrobial adjuvant containing biphenyl derivative compound as active ingredient, and uses thereof” (KOREA RESEARCH INSTITUTE OF BIOSCIENCE AND BIOTECHNOLOGY, priority 2021, dated 2026).
“Also recorded” adds a separate entry of the source.

Experiments:
[1] = test system: human body-derived renal cells ACHN; experiment: nephrotoxicity, renal cell viability (cell titer glo); type: cell-based
Description: First, ACHN renal cells were incubated with 2×10^4 cells/well for 24 hours, and the medium was changed to a medium in which PMB or PA108 was mixed in all wells. After 0, 24, 48, 72, and 96 hours of the treatment with PMB or PA108, cell viability was measured as ratios of the amounts of ATP at each time to 0 hour through cell titer glo to evaluate cytotoxicity.

[2] = test system: A. baumannii colistin R357; experiment: checkerboard assay, MIC and FICI; details: for MIC Alone: 18 hours
Description: First, in a LB agar plate, 3-4 colonies were inoculated into a 4-5 ml of a LB broth and incubated overnight at 37° C. and 220 rpm for 16 hours. Thereafter, 5 ml of a 1/10000 dilution of the culture medium was made and incubated to OD=0.08-0.1 at 37° C. and 220 rpm in a 15 ml round culture tube.
(§1) It was determined that when the FICI value was 0.5 or less, the effect was synergistic, when the value was 0.5 to 4.0, the effect was indifferent, and when the value was 4 or more, the effect was antagonistic.

[3] = test system: K. pneumoniae SCH530; experiment: checkerboard assay, MIC and FICI; details: for MIC Alone: 18 hours
Description: as §1
(§2) First, in each LB agar plate in which bacteria (Klebsiella pneumonia SCH530, SCH740, SCH777, Pseudomonas aeruginosa SMC-U9, SMC-U10, SMC-U11) were grown, 3 to 4 colonies were inoculated into 4 to 5 ml of a LB broth and incubated overnight at 220 rpm at 37° C. for 16 hours. The next day, 5 ml of a culture medium diluted to 1/10000 was incubated to OD=0.08-0.1 in a 15 ml round culture tube at 220 rpm at a temperature of 37° C., and was diluted to 1/20 and dispensed at 196 ul in a 96-well plate. PA108 and PMB were dispensed at concentrations of 0 to 80 μM and 0 to 128 μg/Ml, respectively at 2 ul each and mixed in each well, and incubated at 37° C. for 18 hours to measure the OD value using a multifunctional microplate reader.

[4] = test system: K. pneumoniae SCH740; experiment: checkerboard assay, MIC and FICI; details: for MIC Alone: 18 hours
Description: as §1, §2

[5] = test system: K. pneumoniae SCH777; experiment: checkerboard assay, MIC and FICI; details: for MIC Alone: 18 hours
Description: as §1, §2

[6] = test system: P. aeruginosa SMC-U9; experiment: checkerboard assay, MIC and FICI; details: for MIC Alone: 18 hours
Description: as §1, §2

[7] = test system: P. aeruginosa SMC-U10; experiment: checkerboard assay, MIC and FICI; details: for MIC Alone: 18 hours
Description: as §1, §2

[8] = test system: P. aeruginosa SMC-U11; experiment: checkerboard assay, MIC and FICI; details: for MIC Alone: 18 hours
Description: as §1, §2

[9] = test system: R357 strains; experiment: bacterial viability test (colony forming unit)
Description: First, in a LB agar plate, a single colony was inoculated into a 3 ml of a LB broth and incubated overnight under the conditions of 37° C. and 220 rpm for 16 hours. Thereafter, 1% of the culture medium was diluted in a 250 ml Erlenmeyer flask and then incubated to OD=0.5.

[10] = test system: Acinetobacter baumannii strains; experiment: transcriptome analysis (RNA sequencing, DEG, gene ontology); details: 1 hour
Description: First, in a LB agar plate, a single colony was inoculated into a 3 ml of a LB broth and incubated overnight under the conditions of 37° C. and 220 rpm for 16 hours. Thereafter, 1% of the culture medium was diluted in a 250 mL Erlenmeyer flask and then incubated to OD=0.5. The culture medium was dispensed at 5 ml each into three 15 ml round culture tubes, treated with PMB at a concentration of 16 μg/ml, PA108 at a concentration of 5 μm, and PMB at a concentration of 16 μg/ml and PA108 at a concentration of 5 μm, respectively, and incubated at 37° C. and 220 rpm for 1 hour. Thereafter, bacteria were washed three times with PBS, centrifuged at 4° C. and 8,000×g for 10 minutes, and stored at −80° C.
The library for performing RNA sequencing was prepared by extracting total RNA with a TruSeq Stranded Total RNA sample preparation kit including Ribo-Zero H/M/R, and synthesizing 150 bp-sized cDNA. The quality of the synthesized cDNA library was evaluated by Agilent 2100 BioAnalyzer (Agilent, CA, USA), and after amplifying the cluster of a denatured template, paired-end sequencing which sequences both ends of a DNA fragment using Illumina Novaseq 6000 (Illumina, CA, USA) was performed. For transcriptomic data analysis, the read value was filtered, and the filtered read value was mapped to a reference genome using an aligner STAR v.2.4.0b. Thereafter, in order to measure a gene expression amount, gene expression was quantified using a KAPA library quantification kit (Kapa Biosystems, MA, USA) according to the library quantification protocol of the manufacturer.
In order to identify a differential expression gene (DEG), a gene expression level was measured with Cufflinks v2.1.1 using gene annotation database, and gene expression level count data was produced using HTSeq-count v0.6.1p1. Form the produced data, a TCC R package was used to identify a gene having a q value of less than 0.05 as a differential expression gene.
For the genes identified as the differential expression gene (DEG), gene ontology (GO) analysis in which genes were classified according to three categories of biological process, molecular function, and cellular component, and information about the function of genes is provided was performed.

[11] = test system: Acinetobacter baumannii strains (R357); experiment: bacterial morphological change (fluorescence microscope, scanning electron microscope); details: 9 hours
Description: First, in a LB agar plate, a single colony was inoculated into 3 ml of a LB broth and incubated overnight at 37° C. and 220 rpm for 16 hours. Thereafter, 1% of the culture medium was diluted in a 250 ml of Erlenmeyer flask and incubated to OD=0.5, treated with PMB and PA108 at concentrations of 16 μg/ml and 5 μM, respectively, and incubated for 9 hours. The cells were centrifuged at 4° C. for 10 minutes at 8,000×g, washed three times, and resuspended in PBS. 3 ml of the cell suspension was fixed and then observed with a scanning electron microscope. A LIVE/DEAD BacLight bacterial viability kit (Cat #. L7007, Invitrogen, Waltham, Massachusetts, USA) was used to add SYTO9 (67 mM, 3 μL) which bound to DNA and RNA of living cells to emit green fluorescence and Propidium iodide (PI) (1.67 mM, 3 μL) which bound to DNA and RNA of dead cells to emit red fluorescence to add each sample at a final volume of 3 ml, and the samples were incubated in a dark room at room temperature for 15 hours and observed with a fluorescence microscope.

[12] = test system: R357 strains; experiment: mouse sepsis model caused by R357 infection, survival rate; type: in vivo; details: PMB 100 μg/kg + PA108 60 μg/kg intraperitoneally
Description: Specifically, 5×10^7 of R357 strains were intraperitoneally injected into 6 week old C57BL/6 mouses to prepare a sepsis mouse model caused by R357 infection, and PMB at a dose of 100 μg/kg and PA108 at a dose of 60 μg/kg were intraperitoneally injected alone or in combination to measure the survival rate of the mouse.

[13] = test system: Acinetobacter baumannii strains; experiment: membrane permeability (PI fluorescence); type: cell-based; details: PMB 16 μg/ml + PA108 5 μM; 30 minutes
Description: Specifically, for sample preparation, a colony culture grown for 16 hours was washed and resuspended in 0.01 M PBS at pH 7.4. Absorbance at 600 nm in a bacteria suspension was standardized to 0.5 in the same buffer solution, and a pigment PI9 (cat. P1304MP, Thermo Fisher Scientific, Waltham, Massachusetts, USA) was added at a final concentration of 1.67 μM. After incubation at 37° C. for 30 minutes, 198 μl of fluorescently labeled bacteria cells were added to a 96-well plate, and 16 μg/ml of PMB and 2 μl of 5 μM PA108 were added. After incubation for 30 minutes again, fluorescence was measured in a fluorescence measurement wavelength range of excitation of 535 nm and emission of 615 nm by a multifunctional microplate reader to measure membrane permeability.

[14] = test system: Acinetobacter baumannii strains; experiment: cytoplasmic membrane potential (DiSC3(5) fluorescence); type: cell-based; details: PMB and PA108 in combination
Description: The cell membrane potential was resuspended in 5 mM HEPES (pH 7.0, +5 mM of glucose), DiSC3(5) (3,3′-Dipropylthiadicarbocyanine Iodide) (50 μM, Cat. D306, Invitrogen, Carlsbad, California) which is a pigment sensitive to potential was added, incubation was performed for 30 minutes, and then fluorescence was measured by a multifunctional microplate reader to measure membrane potential.

[15] = A. baumannii colistin R357, PA108 + polymyxin B
[16] = in combination with polymyxin B
[17] = PMB 16 μg/ml + PA108 5 μM, gene ontology analysis

polymyxin B [PMB, reference compound]
concentration from which viability of renal cells decreased ([1]; up to 96 hours): ≥ 50 µg/mL
FIC ([2]; A. baumannii colistin R357): 0.031
MIC Alone ([2]; A. baumannii colistin R357): 54 µg/mL
MIC Combi ([2]; A. baumannii colistin R357, in combination with PA108): 2 µg/mL
minimal inhibitory concentration (MIC) ([2]; R357 strains, polymyxin alone): 64 µg/mL
FIC [3]: 0.0623
MIC Alone [3]: 8 µg/mL
MIC Combi ([3]; in combination with PA108): 0.5 µg/mL
FIC [4]: 0.00781
MIC Alone [4]: 128 µg/mL
MIC Combi ([4]; in combination with PA108): 1 µg/mL
FIC [5]: 0.00391
MIC Alone [5]: 128 µg/mL
MIC Combi ([5]; in combination with PA108): 0.5 µg/mL
FIC [6]: 0.25
MIC Alone [6]: 16 µg/mL
MIC Combi ([6]; in combination with PA108): 4 µg/mL
FIC [7]: 0.125
MIC Alone [7]: 16 µg/mL
MIC Combi ([7]; in combination with PA108): 2 µg/mL
FIC [8]: 0.0625
MIC Alone [8]: 32 µg/mL
MIC Combi ([8]; in combination with PA108): 2 µg/mL
effect of killing (CFU), PMB single treatment ([9]; PMB 16 μg/mL): did not show the effect of killing
gene change compared with control group, PMB single treatment ([10]; PMB 16 μg/ml): significant gene change was observed
cell death by LIVE/DEAD fluorescence, PMB single treatment ([11]; PMB 16 μg/ml): the cells did not die
cell morphology by scanning electron microscope, PMB single treatment ([11]; PMB 16 μg/ml): intact form in which the surface of cells was not damaged

Cc1cc([N+](=O)[O-])cc(-c2ccc(Cl)cc2)c1O [PA108]
nephrotoxicity at working concentration ([1]; 5 μM): nephrotoxicity was not shown at all
renal cell viability ([1]; concentration higher than 5 μM): ≥ 80%
survival time, simultaneous treatment ([12]; C57BL/6 mouse, R357 i.p.): ≥ 168 h
R357 strains in organs at autopsy, simultaneous treatment [12]: R357 strains were not detected in organs
pathological symptoms, simultaneous treatment ([12]; until 168 hours): without showing any pathological symptoms
overall membrane permeability [13]: did not affect the overall membrane permeability
bacterial cytoplasmic membrane potential [14]: changed the bacterial cytoplasmic membrane potential
FIC ([2]; A. baumannii colistin R357): 0.03125
MIC Alone ([2]; A. baumannii colistin R357): 160 µM
FICI [2, 15]: 0.06225
Interpretation [2, 15]: synergistic effect; also recorded: Synergy
MIC Combi ([2]; A. baumannii colistin R357, in combination with PB): 5 µM
FIC [3]: 0.03125
MIC Alone [3]: 160 µM
Interpretation ([3]; PA108 + polymyxin B): Synergy
MIC Combi [3, 16]: 5 µM
FIC [4]: 0.03125
MIC Alone [4]: 160 µM
Interpretation ([4]; PA108 + polymyxin B): Synergy
MIC Combi [4, 16]: 5 µM
FIC [5]: 0.03125
MIC Alone [5]: 160 µM
Interpretation ([5]; PA108 + polymyxin B): Synergy
MIC Combi [5, 16]: 5 µM
FIC [6]: 0.0625
MIC Alone [6]: 160 µM
Interpretation ([6]; PA108 + polymyxin B): Synergy
MIC Combi [6, 16]: 10 µM
FIC [7]: 0.0625
MIC Alone [7]: 160 µM
Interpretation ([7]; PA108 + polymyxin B): Synergy
MIC Combi [7, 16]: 10 µM
FIC [8]: 0.0625
MIC Alone [8]: 160 µM
Interpretation ([8]; PA108 + polymyxin B): Synergy
MIC Combi [8, 16]: 10 µM
effect of killing (CFU), PA108 single treatment ([9]; PA108 5 μM): did not show the effect of killing
cell death (CFU), simultaneous treatment ([9]; PMB 16 μg/mL + PA108 5 μM): cell death was derived
bacterial killing effect ([9]; PMB 16 μg/mL + PA108 5 μM, final): 100%
gene change compared with control group, PA108 single treatment ([10]; PA108 5 μM): significant gene change was observed
gene change compared with control group, simultaneous treatment ([10]; PMB 16 μg/ml + PA108 5 μM): significant gene change was observed
expression of genes involved in transport of substances through a cell membrane, ATPase-coupled sulfate transmembrane transporter activity [10, 17]: significantly increased
expression of genes involved in zinc ion binding, identical protein binding, ferric ion binding and peroxidase activity [10, 17]: significantly decreased
cell death by LIVE/DEAD fluorescence, PA108 single treatment ([11]; PA108 5 μM): the cells did not die
cell morphology by scanning electron microscope, PA108 single treatment ([11]; PA108 5 μM): intact form in which the surface of cells was not damaged
cell death by LIVE/DEAD fluorescence, simultaneous treatment ([11]; PMB 16 μg/ml + PA108 5 μM): cell death was derived
cell morphology by scanning electron microscope, simultaneous treatment ([11]; PMB 16 μg/ml + PA108 5 μM): cells shrunk and an intracellular substance was leaked
